Patent US20040242870A1, “Antiviral methods and compounds” (priority 2000, published 2004)

Experiments:
HIV-1 strain RoJo = assay: PBMC time-of-addition assay (RT in cell-free supernatant at 6 days); assay type: cell-based; settings: for increase in IC50 (loss in potency): 24 h pretreatment; for IC50: Human immunodeficiency virus 1, PBMC
Protocol: Peripheral blood monocular cells (PBMCs) were obtained from normal hepatitis and HIV-1 negative donors by ficoll hypaque gradient separation. The mononuclear cells were washed to remove residual separation media, counted, viability determined and resuspended in RPMI 1640 medium supplemented with 15 % FBS (heat inactivated), 2 mM L-glutamine, 100 U/mL penicillin, 100 μg/mL streptomycin, and 10 μg/mL gentamycin with 2 μg/mL phytohemagluttin (PHA) at 1×10^6 cells/mL. The cells were cultured for 48 to 72 h at 37° C., 5% CO2. Following incubation, cells were collected by centrifugation, washed and resuspended in RPMI 1640 supplemented with 15% FBS (heat inactivated), 2 mM L-glutamine, 100 U/mL penicillin, 100 μg/mL streptomycin, and 10 μg/mL gentamycin with 20 U/mL recombinant IL-2 (R & D Systems, Minneapolis, Minn.). IL-2 was included in the culture medium to maintain the cell division initiated by the PHA mitogenic stimulation, and promote optimal growing conditions for the PBMCs. The cultures were then maintained until use by ½ culture volume change with fresh IL-2 containing medium every 3 days.
(§1) Human peripheral blood mononuclear cells from a minimum of 2 donors, that have been blasted with PHA and IL-2, were counted, viability determined by Trypan Blue dye exclusion and mixed in equal ratios. Pooled donors were used to minimize the variability observed between individual donors which results from quantitative and qualitative differences in HIV infection and overall response to the PHA and IL-2 of primary lymphocyte populations. The cells were resuspended at 1×10^6 cells/mL in RPMI 1640 without phenol red supplemented with 15% Fetal Bovine Serum (heat inactivated), 2 mM L-glutamine, 100 U/mL penicillin, 100 μg/mL streptomycin, 10 μg/Ln gentamycin and IL-2 (20 U/mL, R&D Systems, Minneapolis, Minn.). Fifty microliters of cells were then distributed to the inner 60 wells of a 96 well round bottom microtiter culture plate in a standard format developed by the Infectious Disease Research department of Southern Research Institute. Each plate contains cell control wells (cells only), virus control wells (cells plus virus), and experimental wells (drug plus cells plus virus). Alternatively, cells were cultured in T25 cm^2 or T75 cm^2 tissue culture flasks at a starting density of 1×10^6 cells per ml. Serially diluted compounds were added to the microtiter plate or tissue culture flask followed by the appropriate pre-titered strain of HIV-1. For virus replication inhibition experiments the HIV-1 strain RoJo was used. This is a low passage presumable subtype B pediatric isolate with a syncytium inducing (SI) phenotype in MT-2 cells isolated by Southern Research Institute personnel. All samples were assayed in triplicate where possible with an accompanying determination of compound toxicity. The final volume per well in the microtiter plates was 200 μL. The final volume in the tissue culture flask varied depending upon experimental design and flask size. Assays were incubated for 6 days in a humidified atmosphere at 37° C., 5% CO2, after which supernatants were collected, for analysis of RT activity and cell viability by MTS dye reduction. Culture were also examined microscopically, any abnormalities noted, and in the case of tissue culture flasks cell counts and viability determined by Trypan Blue Dye exclusion.
Time-of-addition assays were performed with PBMCs in two ways. For both assays, PBMCs were isolated and cultured under the conditions as described above. Time-of-addition assays were carried out in either a tissue culture flask format (T-75 cm^2) or in microtiter wells. In both cases due to the lack of plastic adherence and heterogeneity of the PBMC population for susceptibility to infection, it was not possible to use complete removal of virus following a timed adsorption to synchronize the infection and limit the assay to a single round of infection. […]

PBMCs [1] = assay: PBMC cytotoxicity in time-of-addition assay; assay type: cell-based, Human
From the text: as §1
Time-of-addition assays were performed with PBMCs in two ways. For both assays, PBMCs were isolated and cultured under the conditions as described above. Time-of-addition assays were carried out in either a tissue culture flask format (T-75 cm^2) or in microtiter wells. In both cases due to the lack of plastic adherence and heterogeneity of the PBMC population for susceptibility to infection, it was not possible to use complete removal of virus following a timed adsorption to synchronize the infection and limit the assay to a single round of infection. Therefore, serial washing by partial removal of the media was used to reduce the concentration of virus and compound (if required) in the assay. Compound addition in relationship to antiviral activity was either assessed over a short addition interval immediately before or after virus addition or for up to 72 h post infection. For all assays virus replication was assessed at 6 days of culture by determining RT expression in cell-free supernatants. In the tissue culture flask format cells were counted and Trypan Blue Dye exclusion used to monitor compound cytotoxicity. Cell viability in the 96 well microtiter plate format was determined by MTS dye reduction. AZT was used as a positive control.
At assay termination the assay plates were stained with the soluble tetrazolium-based dye MTS (CellTiter96® Reagent Promega) to determine cell viability and quantify compound toxicity. MTS is metabolized by the mitochondria enzymes of metabolically active cells to a soluble formazan product, allowing the rapid quantitative analysis cell viability and compound cytotoxicity. […] At termination of the assay 20 μL of MTS reagent was added per well and incubated for 4 h at 37° C. […]

PBMCs [2] = assay: PBMC viability by Trypan Blue dye exclusion; assay type: cell-based, Human
From the text: as §1
Experiments were conducted using flow cytometry to assess the effect of the IMG compounds and cannabidiol on induction of apoptosis. Briefly, compound-treated PBMCs were assayed for apoptosis using a BrdU methodology. Table 6 summarizes the effects of the IMG Compounds on cell cycle and cell viability by Trypan Blue Dye exclusion. Table 7 reduces the changes in the cell cycle to a ratio based upon the percent of cells in G2-G1. G2-G1 cells represent transition cells that are in either G2 or G1, that cannot be distinguished based upon DNA content by flow cytometry. […] This ratio cannot be used as a quantitative factor to measure fold-increases or decreases between population, but rather to access trends in the cell cycle.

[3] = 4 h, −4 h pre (relative to infection)
[4] = pre-treat 0 h prior to infection
[5] = pre-treat 2 h prior to infection
[6] = pre-treat 4 h prior to infection
[7] = pre-treat 24 h prior to infection
[8] = −4 h pre (relative to infection)

Compound	increase in IC50 (loss in potency) (HIV-1 strain RoJo)	IC50 (HIV-1 strain RoJo; [3]) [µM]	IC50 (HIV-1 strain RoJo; 6 h, 6 h post infection) [µM]	IC50 (HIV-1 strain RoJo; at infection) [µM]	IC50 (HIV-1 strain RoJo; [4]) [µM]	IC50 (HIV-1 strain RoJo; [5]) [µM]	IC50 (HIV-1 strain RoJo; [6]) [µM]	IC50 (HIV-1 strain RoJo; [7]) [µM]	TC50 (PBMCs [1]; 6 h post infection) [µM]	TC50 (PBMCs [1]; at infection) [µM]	TC50 (PBMCs [1]; [8]) [µM]	further results
COc1cc(C(C)(C)CCCC(C)C)cc(OC)c1OC [IG-07, 1-(1,1,5Trimethylhexyl)-3,4,5-trimethoxybenzene]	approximately 2 fold	39.5	46.1	67	6.9	6.1	5.3	10.8	>100	>100	>100	% Viable Cells (PBMCs [2]; 5 μM, HIV +): 94%; % Viable Cells (PBMCs [2]; 5 μM, HIV −): 92%; % Viable Cells (PBMCs [2]; 100 μM, HIV +): 55%; % Viable Cells (PBMCs [2]; 100 μM, HIV −): 50%
C=C(C)[C@@H]1CCC(C)=C[C@H]1c1c(O)cc(CCCCC)cc1O [Cannabidiol, reference compound]	at 4 h then a 17-fold	12.1	12.1	13.8	0.58	5	1.5	10.5	>100	>100	>100	loss of activity (potency) (HIV-1 strain RoJo; 2 h pre-treatment, listed as cannabidiol): approximately 10 fold; regain of potency (decrease in IC50) (HIV-1 strain RoJo; 4 h pretreatment): activity at 2, regain 3.3-fold; regain of potency (decrease in IC50) (HIV-1 strain RoJo; 4 h pretreatment, listed as cannabidiol): 3.3 fold; increase in IC50 (loss in potency) (HIV-1 strain RoJo; listed as cannabidiol): 17 fold; % Viable Cells (PBMCs [2]; 1 μM, HIV +): 94%; % Viable Cells (PBMCs [2]; 1 μM, HIV −): 85%; % Viable Cells (PBMCs [2]; 25 μM, HIV +): 55%; % Viable Cells (PBMCs [2]; 25 μM, HIV −): 86%; % Viable Cells (PBMCs [2]; 35 μM, HIV +): 61%; % Viable Cells (PBMCs [2]; 35 μM, HIV −): 61%
CC(C)=CCCC1(C)CCc2c(O)cc(C(C)(C)CCCC(C)C)cc2O1 (stereo not drawn) [IG-08, 3,4-Dihydro-2-methyl-2-(4-methyl-3-pentenyl)-7-(1,1,5-trimethylhexyl)-2H-1-benzopyran-5-ol]		6.2	22.5	15.7	14.2	10.4	4.1	11.9	>100	>100	>100	decrease in IC50 (HIV-1 strain RoJo; 4 h pretreatment): 4-fold decrease in; % Viable Cells (PBMCs [2]; 15 μM, HIV +): 94%; % Viable Cells (PBMCs [2]; 15 μM, HIV −): 89%; % Viable Cells (PBMCs [2]; 30 μM, HIV +): 67%; % Viable Cells (PBMCs [2]; 30 μM, HIV −): 62%
